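Test compounds were applied to cells in 96-well plates for 48 hours at 5 doses. TGI denotes the concentration required for complete inhibition of growth.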
Columns and labels:
Assay in all cases: DTP human tumour cell line panel, 48 h
[1] = tested on: 786-0 renal
[2] = tested on: A498 renal
[3] = tested on: A549 NSCLC
[4] = tested on: ACHN renal
[5] = tested on: BT-549 breast
[6] = tested on: CAKI-1 renal
[7] = tested on: CCRF-CEM leukemia
[8] = tested on: COLO 205 colon
[9] = tested on: DU-145 prostate
[10] = tested on: EKVX NSCLC
[11] = tested on: HCT-116 colon
[12] = tested on: HCT-15 colon
[13] = tested on: HL-60(TB) leukemia
[14] = tested on: HOP-62 NSCLC
[15] = tested on: HOP-92 NSCLC
[16] = tested on: HS 578T breast
[17] = tested on: HT29 colon
[18] = tested on: IGROV1 ovarian
[19] = tested on: K-562 leukemia
[20] = tested on: KM12 colon
[21] = tested on: M14 melanoma
[22] = tested on: MALME-3M melanoma
[23] = tested on: MCF7 breast
[24] = tested on: MDA-MB-435
[25] = tested on: MDA-N
[26] = tested on: MOLT-4 leukemia
[27] = tested on: NCI-H23 lung
[28] = tested on: NCI-H460 lung
[29] = tested on: NCI-H522 lung
[30] = tested on: NCI/ADR-RES ovarian
[31] = tested on: OVCAR-3 ovarian
[32] = tested on: OVCAR-4 ovarian
[33] = tested on: OVCAR-5 ovarian
[34] = tested on: OVCAR-8 ovarian
[35] = tested on: PC-3 prostate
[36] = tested on: RPMI-8226 leukemia
[37] = tested on: RXF 393 renal
[38] = tested on: SF-268 CNS
[39] = tested on: SF-295 CNS
[40] = tested on: SF-539 CNS
[41] = tested on: SK-MEL-2 melanoma
[42] = tested on: SK-MEL-28 melanoma
[43] = tested on: SK-MEL-5 melanoma
[44] = tested on: SK-OV-3 ovarian
[45] = tested on: SN12C renal
[46] = tested on: SNB-19 CNS
[47] = tested on: SNB-75 CNS
[48] = tested on: SR leukemia
[49] = tested on: SW-620 colon
[50] = tested on: T-47D breast
[51] = tested on: TK-10 renal
[52] = tested on: UACC-257 melanoma
[53] = tested on: UACC-62 melanoma
[54] = tested on: UO-31 renal
[55] = tested on: HCC-2998 colon
[56] = tested on: NCI-H226 lung
[57] = tested on: U251 CNS

`COc1cc(S(=O)(=O)Nc2ccc(-c3csc(N4C(=O)C(Cl)C4c4ccccc4)n3)cc2)ccc1Cl` (centres undefined) gave a TGI [1] of 49 µM, a TGI [2] of 68.8 µM and a TGI [3] greater than 100 µM. It also gave a TGI [4] greater than 100 µM, a TGI [5] of 83.2 µM and a TGI [6] greater than 100 µM. For the same compound, the TGI [7] was greater than 100 µM, the TGI [8] was greater than 100 µM and the TGI [9] was 38.7 µM. For the same compound, the TGI [10] was 94.4 µM, the TGI [11] was greater than 100 µM and the TGI [12] was greater than 100 µM. The TGI [13] was greater than 100 µM, the TGI [14] was greater than 100 µM and the TGI [15] was 33.7 µM. It also gave a TGI [16] greater than 100 µM, a TGI [17] greater than 100 µM and a TGI [18] of 22.4 µM. For the same compound, the TGI [19] was greater than 100 µM, the TGI [20] was greater than 100 µM and the TGI [21] was 59.2 µM. For the same compound, the TGI [22] was 49 µM, the TGI [23] was greater than 100 µM and the TGI [24] was greater than 100 µM. For the same compound, the TGI [25] was greater than 100 µM, the TGI [26] was greater than 100 µM and the TGI [27] was 89.3 µM. For the same compound, the TGI [28] was greater than 100 µM, the TGI [29] was 33.9 µM and the TGI [30] was greater than 100 µM. The TGI [31] was greater than 100 µM, the TGI [32] was 87.3 µM and the TGI [33] was greater than 100 µM. For the same compound, the TGI [34] was 39.9 µM, the TGI [35] was greater than 100 µM and the TGI [36] was greater than 100 µM. The TGI [37] was 23.1 µM, the TGI [38] was greater than 100 µM and the TGI [39] was greater than 100 µM. For the same compound, the TGI [40] was greater than 100 µM, the TGI [41] was greater than 100 µM and the TGI [42] was greater than 100 µM. The TGI [43] was 88.1 µM, the TGI [44] was greater than 100 µM and the TGI [45] was 94 µM. It also gave a TGI [46] greater than 100 µM, a TGI [47] of 49.1 µM and a TGI [48] greater than 100 µM. For the same compound, the TGI [49] was greater than 100 µM, the TGI [50] was 77.1 µM and the TGI [51] was greater than 100 µM. For the same compound, the TGI [52] was greater than 100 µM, the TGI [53] was 51.2 µM and the TGI [54] was 63.1 µM.
With `CCOC(=O)CCC(NC(=O)OCc1ccccc1)C(=O)NC(CCC(=O)OCC)C(=O)NNC(=O)OC(C)(C)C` (centres undefined) the TGI [5] was greater than 100 µM, the TGI [6] was greater than 100 µM and the TGI [7] was greater than 100 µM. It also gave a TGI [8] greater than 100 µM, a TGI [9] greater than 100 µM and a TGI [55] greater than 100 µM. It also gave a TGI [11] greater than 100 µM, a TGI [12] greater than 100 µM and a TGI [13] greater than 100 µM. It also gave a TGI [14] greater than 100 µM, a TGI [15] greater than 100 µM and a TGI [16] greater than 100 µM. For the same compound, the TGI [18] was greater than 100 µM, the TGI [19] was greater than 100 µM and the TGI [20] was greater than 100 µM. It also gave a TGI [21] greater than 100 µM, a TGI [22] greater than 100 µM and a TGI [23] greater than 100 µM. For the same compound, the TGI [24] was greater than 100 µM, the TGI [25] was greater than 100 µM and the TGI [26] was greater than 100 µM. The TGI [56] was greater than 100 µM, the TGI [27] was greater than 100 µM and the TGI [28] was greater than 100 µM. The TGI [29] was greater than 100 µM, the TGI [30] was greater than 100 µM and the TGI [31] was greater than 100 µM. The TGI [33] was greater than 100 µM, the TGI [34] was greater than 100 µM and the TGI [35] was greater than 100 µM. The TGI [36] was greater than 100 µM, the TGI [37] was greater than 100 µM and the TGI [39] was greater than 100 µM. For the same compound, the TGI [41] was greater than 100 µM, the TGI [42] was greater than 100 µM and the TGI [43] was greater than 100 µM. For the same compound, the TGI [44] was greater than 100 µM, the TGI [45] was greater than 100 µM and the TGI [46] was greater than 100 µM. It also gave a TGI [47] greater than 100 µM, a TGI [48] greater than 100 µM and a TGI [50] greater than 100 µM. For the same compound, the TGI [57] was greater than 100 µM, the TGI [53] was greater than 100 µM and the TGI [54] was greater than 100 µM.

From PubChem BioAssay (NCI)
